The text below walks through data of patent US20070197432A1, “Peptides for preventing, diagnosing and treating animal and/or human leptospirosis” (priority 2002, published 2007).

Data set [1] has as its system Leptospira interrogans sl serovar canicola. The data set is described as follows: Dogs immunized with PP-KLH, canicola challenge: cultures of plasma, urine and kidney samples. Format: in vivo, dog.
Data set [2] has the same test system. The data set can be described thus: Dogs immunized with PP-KLH, canicola challenge: PCR on plasma, urine and kidney samples. Format: in vivo, dog. Here is the method:
(§1) The animals are given a challenge at a rate of one virulent culture of 4 to 6 days. For an immunized batch and a control batch, each animal received, in each eye, 0.3 ml of the culture having a titer of 120 TU (i.e. 2×10^8 leptospires per ml) and, intraperitoneally, 4 ml of the same culture diluted ten-fold.
The presence of leptospires was studied jointly by PCR (PCR specific for pathogenic leptospires) and by culturing, in the urine at D0, D10, D14, D18, D25 and D41 and in the kidney samples from each animal at the end of the trial at […].
Moreover, the bacteriological results were quantified through the setting up of a coefficient: • by immediate culturing. A single live leptospire can give a positive culture. A relative estimation of the bacterial concentration is expressed by means of a coefficient of 3 when a culture has developed in the third serial dilution prepared from the sample. • by PCR on frozen samples. […] A coefficient of 1 was assigned to a PCR with a weak signal and a coefficient of 2 to a strongly positive PCR.

Data set [3] has the same test system. The data set can be described thus: Dogs immunized with PP-KLH, canicola challenge: clinical, hematological and biochemical parameters. The data set is classed as in vivo, dog. Here is the method: An immunization/challenge protocol was carried out in order to evaluate the protection that can be provided by the PP peptide (SEQ ID No. 1) NH2-coupled to the KLH carrier protein (FIG. 14).
This construct is administered subcutaneously without adjuvant, with PBS as a negative control (batch 2).
Batch 1: 6 SPF dogs, 2 injections of 250 μg of PP-KLH in 1 ml subcutaneously.
Batch 2: 6 SPF dogs, control.
The two injections were administered subcutaneously, […].
The challenge (CH) was carried out on D0.
as §1
The challenge phase was carried out from D-1 to […], with the challenge on D0.
During this phase, the temperature was measured on D0, D1, D2, D3, D4, D5, D6 and D7.
The hematological parameters were measured on D-1, D3, D7, D10, D14, D15 and D41.
The biochemical parameters were measured on D-1, D3, D7, D10, D14, D18, D25 and D41.

Another data set has as its system PP peptide. The data set can be described thus: Immunization of mice with PP peptide coupled to KLH, anti-PP IgG1/IgG2A ELISA. The data set is classed as in vivo. Here is the method: A batch of 5 mice was formed. Two injections were administered subcutaneously, two weeks apart. The 1st injection consists of 10 μg of PP peptide coupled to KLH, with complete Freund's adjuvant, in a volume of 200 μl (v/v). The 2nd injection consists of 10 μg of PP peptide coupled to KLH, with incomplete Freund's adjuvant, in a volume of 200 μl (v/v). This trial was carried out twice.
In parallel, a batch of 5 mice given nothing is used as a control.
A blood sample was taken two weeks after the second injection for serological monitoring.
The anti-PP antibodies produced in the mice are titered by means of an ELISA technique either on individual serological samples or on pools of several sera. The PP antigen is adsorbed in Immulon 4 plates (Dynatech) at a rate of 500 ng of PP per well diluted in 10 mM sodium carbonate buffer, pH=9.4.
After an overnight period at 4° C., the plates are washed with PBS containing 0.2% tween20, and then saturated with a solution of 1% BSA in TNE (50 mM Tris, 150 mM NaCl, 1 mM EDTA, pH 7.4) for 60 min at 37° C. […] The colored reaction is read in a spectrophotometer at 405 nm.
The results of the anti-PP IgG1 antibody response, expressed as corrected OD, of the immunization trials 1 and 2 with the PP peptide coupled to KLH are given in FIG. 1. […]
In general terms: An ELISA detects its analyte on a solid surface through an enzyme-linked reagent.

No end group written: not given here.

Consider “PP-KLH: PP peptide with cysteine added at the N-terminal position, coupled via sulfo-MBS to KLH carrier protein (keyhole limpet hemocyanin) (KAKPVQKLDDDDDGDDTYKEERHNK; not fully specified (N-terminus))”, for which the positive cultures/dogs was 5/6 in data set [1] (Kidneys, D41) and 3/6 in data set [1] (Urine, D7). Moreover, the “positive PCR/dogs” value is 1/6 in data set [2] (Kidneys, D41); 0/6 in data set [2] (Plasma, D0); 6/6 in data set [2] (Plasma, D3); 0/6 in data set [2] (Plasma, D7); 2/6 in data set [2] (Urine, D14); 1/6 in data set [2] (Urine, D18). The “positive PCR/dogs” value in data set [2] (Urine, D25) is listed as 3/6; in data set [2] (Urine, D41) it was 4/6. Moreover, the thrombocytopenia entry in data set [3] (after challenge) is “significantly more pronounced in the controls than in the immunized dogs”. Moreover, in data set [3] (at D3 and D4), the “p, difference in temperature, control versus immunized dogs (controls more pronounced febrile peak)” value is less than 0.05. Besides, the “P, evolution of mean increase in temperature, control versus immunized dogs (not significantly different)” value in data set [3] (between D0 and D7) was 0.7944. Besides, the “P, evolution of white blood cells, control versus immunized dogs (not significantly different)” value in data set [3] (between D-1 and D41) was determined as 0.4407. In addition, in data set [3] (between D-1 and D41), the “p, evolution of mean variation in platelets, control versus immunized dogs (significantly different)” value was 0.0412. Besides, the “mortality following the challenge” value in data set [3] (dogs, immunized and control) is “No mortality”. The “protection against a canicola challenge in dogs” value in data set [3] (overall conclusion) is reported as “makes it possible to induce protection”. Besides, in data set [3] (period of acute effect in the kidneys (D0-D10)), the “p, tendency for higher urea level in the controls (no significant difference)” value was less than 0.15. Further, the “p, urea level in the controls significantly higher” value in data set [3] (period of kidney colonization (D10-D41)) is less than 0.02. Moreover, the immunogenicity result with PP peptide is “very immunogenic”. For the same substance, the “anti-PP IgG2A antibody response” value in the data set with PP peptide (2 s.c. injections of 10 μg with Freund's adjuvant) was “high but less substantial than the anti-PP IgG1 response”.
